Entries after “also recorded” stand apart in the source; their conditions may differ.
Key:
[1] = test system: human lung carcinoma A549 cells; assay: MTT assay, A549 cells; type: cell-based
Protocol: (§6) Solutions of the platinum compounds were freshly prepared in sterile PBS before use and their concentrations quantitated by atomic absorption spectroscopy. Cells were seeded on a 96-well plate (1200 cells per well for cancer cells and 1800 cells per well for the normal lung fibroblasts) in 100 μL RPMI or DMEM media, and incubated for 24 h. […] The cells were then treated with 20 μL of 3-(4,5-dimethylthiazol-2-yl)-2,5-diphenyltetrazolium bromide (MTT) (5 mg/mL in PBS) and incubated for 4 h. The medium was removed, 100 μL of DMSO was added to the cells, and the absorbance of the purple formazan was recorded at 560 nm using a BioTek Synergy HT multi-detection microplate plate reader. Each condition was performed in triplicate and three independent experiments were carried out for each cell line.
Solutions of the platinum agents were freshly prepared in sterile PBS before use and the platinum content was quantitated by AAS. Cells were seeded on 96 well plates (1200 cells per well) in 100 μL RPMI or DMEM media\ and incubated for 24 hours. […] The cells were then treated with 20 μL of 3-(4,5-dimethylthiazol-2-yl)-2,5-diphenyltetrazolium bromide (MTT) (5 mg/mL in PBS) and incubated for 4 h. The medium was removed, 100 μL of DMSO were added to the cells, and the absorbance of the purple formazan was recorded at 570 nm using a BioTek Synergy HT multi-detection microplate plate reader. For each cell line, three independent experiments were carried out in triplicate.

[2] = test system: normal lung fibroblast MRC5; assay: MTT assay, MRC5 cells; type: cell-based, human; details: MRC5, 72-h incubation, Table 5
Protocol: as §6

[3] = test system: human bone sarcoma U2OS cells; assay: MTT assay, U2OS cells; type: cell-based; details: 72-h incubation
Protocol: Human colon carcinoma HT29, human breast carcinoma MCF7, human bone sarcoma U2OS, human prostate carcinoma PC3, and human cervix carcinoma HeLa cells were obtained from the ATCC. A2780/CP70 cisplatin-resistant human ovarian cancer cells were kindly provided by Dr. Stephen B. Howell (Moores UCSD Cancer Center) and the human lung carcinoma cell lines A549 and normal lung fibroblast MRC5 by David E. Root (Whitehead Institute for Biomedical Research). Cells were incubated at 37° C. in 5% CO2 and grown in RPMI (HT29, A2780/CP70, and PC3) or DMEM (A549, MRC5, HeLa, MCF7, and U2OS) medium supplemented with 10% fetal bovine serum and 1% penicillin/streptomycin. Cells were passed every 3 to 4 days and restarted from a frozen stock upon reaching pass number 20.
Solutions of the platinum compounds were freshly prepared in sterile PBS before use and their concentrations quantitated by atomic absorption spectroscopy. […] The cells were then treated with 20 μL of 3-(4,5-dimethylthiazol-2-yl)-2,5-diphenyltetrazolium bromide (MTT) (5 mg/mL in PBS) and incubated for 4 h. The medium was removed, 100 μL of DMSO was added to the cells, and the absorbance of the purple formazan was recorded at 560 nm using a BioTek Synergy HT multi-detection microplate plate reader. Each condition was performed in triplicate and three independent experiments were carried out for each cell line. […]

[4] = test system: human colon carcinoma HT29 cells; assay: MTT assay, HT29 cells; type: cell-based; details: HT29, 72-h incubation, Table 5
Protocol: Solutions of the platinum compounds were freshly prepared in sterile PBS before use and their concentrations quantitated by atomic absorption spectroscopy. Cells were seeded on a 96-well plate (1200 cells per well for cancer cells and 1800 cells per well for the normal lung fibroblasts) in 100 μL RPMI or DMEM media, and incubated for 24 h. […] The medium was removed, 100 μL of DMSO was added to the cells, and the absorbance of the purple formazan was recorded at 560 nm using a BioTek Synergy HT multi-detection microplate plate reader. […]

[5] = test system: human cervix carcinoma HeLa cells; assay: MTT assay, HeLa cells; type: cell-based; details: 72-h incubation, Table 5
Protocol: as §6
Solutions of the platinum agents were freshly prepared in sterile PBS before use and the platinum content was quantitated by AAS. […] The medium was removed, 100 μL of DMSO were added to the cells, and the absorbance of the purple formazan was recorded at 570 nm using a BioTek Synergy HT multi-detection microplate plate reader. […]

NTera2 (Testis) cells = assay: MTT assay, NTera2 cells; type: cell-based, human; details: 72-h incubation, Table 3
Protocol: as §6

[6] = test system: GLuc expression from transfected A549 cells; assay: GLuc transcription assay, globally platinated probes, A549; type: cell-based, human; details: for transcription inhibition, in words: globally platinated probes; for transcription level (normalized against unplatinated plasmid): Pt/DNA ratio of […] for phenanthriplatin
Protocol: (§1) Transfection of transcription probes into A549 and HT29 cells with the pGLuc plasmid was carried out using liposomal transfecting agents. Determination of expression levels was tested by Luciferase assays monitored by a luminometer (J. Am. Chem. Soc. 2010, 132, 7429-7435). A549 cells were plated in 96-well plates at 2,000 cells/well and HT29 cells were plated in 96-well plates at 6,000 cells/well. After 48 h incubation (at ˜30% confluence), cells were transfected with 50 ng of platinated plasmids in 25 μL Opti-MEM and 0.125 μL Lipofectamine 2000, and subsequently 50 μL of antibiotics-free DMEM supplemented with 10% FBS. After 2 h, the cells were washed with medium and 100 μL of fresh medium was added. The experiment was carried out in quadruplicate.
(§2) GLuc activity was monitored using a luminescence plate reader (Synergy 2, BioTek, Winooski, Vt., USA). A 10 μL volume of medium at different time points (12, 24, 36, 48, 60 h) was transferred into opaque white 96-well plates, and 25 μL of GLuc assay solution (10 μM colelenterazine (NanoLight Technologies, Pinetop, Ariz., USA) in 2.5 mM acidified methanol (100 mM HCl), buffer (10 mM Tris-HCl pH 7.8, 1 mM EDTA, 0.6 M NaCl)) was added by the automatic injector of the instrument.
(§3) Investigations of the cellular processing of Pt-DNA lesions are important for understanding the mechanism of action of platinum drugs. One of the major consequences of Pt-DNA damage is transcription inhibition, the extent of which dictates the efficacy of Pt drugs.
(§4) A549 or HT29 cells were transfected using these platinated transcription probes for 2 h at 37° C. and cell media were collected at 12, 24, 36, 48, and 60 h after the transfection. The levels of GLuc expression in cells were measured using a luminometer. The intensity values were normalized against controls (unplatinated plasmid). Transcription profiles were obtained by plotting normalized levels of GLuc expression against platination levels (Pt/plasmid ratio) at five different time points (FIG. 5). […] In FIG. 5: transcription profiles of globally platinated probes in A549 (top) and HT29 (bottom) cells.
(§5) In another embodiment, A549 or HT29 cells were transfected using the platinated transcription probes, and transcription levels were investigated by determining GLuc expression as measured by […] following addition of coelenterazine as a substrate for the exported enzyme. The emission intensities were normalized against unplatinated plasmids as a control. Transcription profiles were obtained by plotting normalized levels of GLuc expression against platination levels (Pt/plasmid ratio) at five different time points. […] An increase in D0 value at different time points represents restoration of transcription.

[7] = Aquation in D2O by 1H NMR; details: 37° C.
Protocol: The 1-D ^1H NMR kinetic studies were performed in duplicate as a standard time-arrayed experiment using a variable delayed list. Incremented 1-D spectra were processed in exactly the same way and signals of aromatic amine ligands from platinum compounds were integrated. The relative concentrations of the platinum compound at each time point were calculated from peak integrals. […] Reactions of platinum compounds with 5′-dGMP were performed in NMR tubes containing 2 mM of the platinum compounds and 32 mM (16 equiv) of 5′-dGMP in 10 mM PBS buffer, D2O, pH*7.4 at 37° C.

calf thymus DNA = assay: Ethidium bromide DNA-binding competition, Scatchard analysis; set-up: key: competitive (type A); non-competitive (type D); both (type B); No inhibition of ethidium binding is labeled as type C
Text: Using this approach, it is possible to determine whether the inhibition of ethidium binding is competitive (type A), non-competitive (type D), or both (type B). No inhibition of ethidium binding is labeled as type C.

[8] = test system: GLuc expression from transfected HT29 cells; assay: GLuc transcription assay, globally platinated probes, HT29; type: cell-based, human; details: for transcription inhibition, in words: globally platinated probes; for transcription level (normalized against unplatinated plasmid): Pt/DNA ratio of […] for phenanthriplatin
Protocol: as §1, §2, §3, §4, §5

pGLuc plasmid = assay: Global platination of pGLuc plasmid; details: for level of DNA-bound compound per amount added (rb vs. rf): 16 h, 24 mM HEPES pH 7.4, 10 mM NaCl; for level of DNA-bound compound per amount added (rb vs. rf) / rb (bound Pt/nucleotide): 37° C.
Protocol: The resulting mixtures were dialyzed (molecular weight cut-off 3.5 kDa) against ddH2O overnight at 4° C. with five changes of ddH2O. The rb values (bound Pt/nucleotide) were determined by UV/Vis and atomic absorption spectroscopy.
In one embodiment, the ratio of bound platinum per plasmid was determined by measuring the Pt concentration by atomic absorption spectroscopy and the DNA concentration by UV/Vis spectroscopy.

[9] = 16 equiv 5′-dGMP, 37° C., PBS pH 7.4
Protocol: The 1-D ^1H NMR kinetic studies were performed in duplicate as a standard time-arrayed experiment using a variable delayed list. Incremented 1-D spectra were processed in exactly the same way and signals of aromatic amine ligands from platinum compounds were integrated. The relative concentrations of the platinum compound at each time point were calculated from peak integrals. […] Reactions of platinum compounds with 5′-dGMP were performed in NMR tubes containing 2 mM of the platinum compounds and 32 mM (16 equiv) of 5′-dGMP in 10 mM PBS buffer, D2O, pH*7.4 at 37° C. Deuterated 3-(trimethylsilyl)propionic acid sodium salt (TMS-PFASS) was used as an internal standard. The pH* values are the measured pH values without correction for the effect of deuterium on the electrode.

[10] = equimolar N-AcMet, 37° C.
Protocol: NMR spectra were collected on a Varian 500 spectrometer equipped with a triple-resonance broadband inverse probe and a variable temperature unit. The 1-D ^1H NMR kinetic studies were performed in duplicate as a standard time-arrayed experiment using a variable delayed list. Incremented 1-D spectra were processed in exactly the same way and signals of aromatic amine ligands from platinum compounds were integrated. The relative concentrations of the platinum compound at each time point were calculated from peak integrals. […] Reactions of platinum compounds with N-AcMet were performed in NMR tubes containing 2 mM of the Pt complex and 2 mM (1 equiv) of N-AcMet in 10 mM PBS buffer, D2O, pH*7.4 at 37° C. […] Deuterated 3-(trimethylsilyl)propionic acid sodium salt (TMS-PFASS) was used as an internal standard. The pH* values are the measured pH values without correction for the effect of deuterium on the electrode.
(pH*=refers to a pH measurement uncorrected for the effect of deuterium on the electrode.)

Q: With `O=[N+]([O-])[O-].[NH3+][Pt-2]([NH3+])([Cl])[n+]1cccc2ccccc21` (stereo not drawn) [cis-[Pt(NH3)2(quinoline)Cl]NO3] as the compound, how does the IC50 ([1]; A549, 72-h incubation, Table 5) read?
A: 6.11 ± 0.68 µM

Q: What about the IC50 [2] of the same compound?
A: 23.5 ± 1.6 µM

Q: And the IC50 ([3]; U2OS, Table 5)?
A: 23.5 ± 2.7 µM

Q: What about the IC50 [4] of the same compound?
A: 38 ± 4.5 µM

Q: And the IC50 [5]?
A: 12.2 ± 0.8 µM

Q: Which results are given for `O=C1[O][Pt]2([NH][C@@H]3CCCC[C@H]3[NH]2)[O]C1=O` [oxaliplatin]?
A: IC50 ([1]; A549 (Lung), 72-h incubation, Table 3): 8.79 ± 0.26 µM; IC50 ([3]; U2OS (Bone), Table 3): 6.67 ± 0.59 µM; IC50 (NTera2 (Testis) cells): 1.21 ± 0.06 µM

Q: What does the source list for “cis-[Pt(NH3)2(phenanthridine)Cl]NO3 [phenanthriplatin]”?
A: transcription inhibition, in words [6]: as strongly as cisplatin; also recorded: as efficiently as cisplatin; time to complete aquation (equilibrium with aqua analogue) [7]: ≤ 1 h; type of inhibition of ethidium binding (calf thymus DNA; 12-h incubation period): D; type of inhibition of ethidium binding (calf thymus DNA; 1 min incubation period): C; transcription inhibition, in words [8]: as strongly as cisplatin; also recorded: as efficiently as cisplatin; level of DNA-bound compound per amount added (rb vs. rf) (pGLuc plasmid): almost identical to that of cisplatin; rb (bound Pt/nucleotide) (pGLuc plasmid; rf 0.0008, 16 h): 0.0015; rb (bound Pt/nucleotide) (pGLuc plasmid; rf 0.0019, 16 h): 0.0019; rb (bound Pt/nucleotide) (pGLuc plasmid; rf 0.0029, 16 h): 0.0030; rb (bound Pt/nucleotide) (pGLuc plasmid; rf 0.0060, 16 h): 0.0053

Q: Which “transcription level (normalized against unplatinated plasmid)” value ([6]; 12 h) does the source give for pyriplatin here?
A: 55.2%

Q: And the “transcription level (normalized against unplatinated plasmid)” value ([6]; 60 h)?
A: 66.8%

Q: What about the “transcription inhibition, in words” value [6] of the same compound?
A: less efficient than that of either cisplatin or phenanthriplatin by a factor of two

Q: What about the IC50 ([1]; A549, 72-h incubation, Table 5) of the same compound?
A: 62.1 ± 2.3 µM

Q: And the IC50 [2]?
A: 82.1 µM

Q: And the “time to complete aquation (equilibrium with aqua analogue)” value [7]?
A: ≤ 1 h

Q: And the “type of inhibition of ethidium binding” value (calf thymus DNA; 12-h incubation period)?
A: C

Q: What about the “type of inhibition of ethidium binding” value (calf thymus DNA; 1 min incubation period) of the same compound?
A: C

Q: And the “transcription level (normalized against unplatinated plasmid)” value ([8]; 12 h)?
A: 55.3%

Q: What about the “transcription level (normalized against unplatinated plasmid)” value ([8]; 60 h) of the same compound?
A: 75.2%

Q: What about the “transcription inhibition, in words” value [8] of the same compound?
A: less efficient than that of either cisplatin or phenanthriplatin by a factor of two

Q: And the “pseudo-first order rate constant, reaction with 5′-dGMP” value [9]?
A: 0.29 h⁻¹

Q: And the “reaction with N-AcMet more rapid than that for phenanthriplatin” value [10]?
A: > 10 fold

Q: And the “second-order rate constant, reaction with N-AcMet” value [10]?
A: 0.156 M⁻¹ s⁻¹

Q: What about the “level of DNA-bound compound per amount added (rb vs. rf)” value (pGLuc plasmid) of the same compound?
A: almost identical to that of cisplatin

Q: What about the Pt per plasmid (pGLuc plasmid; rf 0.0016) of the same compound?
A: 13.33 Pt per plasmid

Q: And the “rb (bound Pt/nucleotide)” value (pGLuc plasmid; rf 0.0016, 16 h)?
A: 0.0017

Q: What about the Pt per plasmid (pGLuc plasmid; rf 0.004) of the same compound?
A: 31.19 Pt per plasmid

Q: What about the “rb (bound Pt/nucleotide)” value (pGLuc plasmid; rf 0.004, 16 h) of the same compound?
A: 0.0039

Q: What about the Pt per plasmid (pGLuc plasmid; rf 0.0076) of the same compound?
A: 57.96 Pt per plasmid

Q: And the “rb (bound Pt/nucleotide)” value (pGLuc plasmid; rf 0.0076, 16 h)?
A: 0.0073

Q: And the Pt per plasmid (pGLuc plasmid; rf 0.015)?
A: 117.31 Pt per plasmid

Q: And the “rb (bound Pt/nucleotide)” value (pGLuc plasmid; rf 0.015, 16 h)?
A: 0.0015
